The numbers were not newly measured in patent US20140296830A1 (priority 2013, published 2014), which cites them from elsewhere.

Structures are written as SMILES.

The conditions of data set [1]: pH 4.
For data set [2] the following is noted: versus mepivacaine and lidocaine.

Consider `CSCC[C@@H]1NC(=O)[C@H](CC(C)C)NC(=O)[C@H](CCCNC(=N)N)NC(=O)[C@H](CO)NC(=O)[C@@H]2CSSC[C@@H]3NC(=O)[C@H](CO)NC(=O)CNC(=O)[C@H]([C@@H](C)O)NC(=O)[C@H](CSSC[C@H](N)C(=O)N[C@@H](CCCCN)C(=O)NCC(=O)N[C@@H](CCCCN)C(=O)NCC(=O)N[C@@H](C)C(=O)N[C@@H](CCCCN)C(=O)N2)NC(=O)[C@H](CSSC[C@@H](C(N)=O)NC(=O)[C@H](CCCCN)NC(=O)CNC(=O)[C@H](CO)NC(=O)[C@H](CCCNC(=N)N)NC3=O)NC(=O)[C@H](CC(=O)O)NC(=O)[C@H](Cc2ccc(O)cc2)NC1=O` [ziconotide], for which the solution stability result in data set [1] was “stable at 45 °C for weeks”.

For the compound `CCCCN1CCCCC1C(=O)Nc1c(C)cccc1C` (centres unmarked) [bupivacaine], the “potency relative to mepivacaine and lidocaine” value in data set [2] is listed as “about 4 times”.
